Test results reported in US20030212144A1, “Method for inducing an estrous cycle and pregnancy in a female mammal” (priority 2003, published 2003).
No end group written: not given here.

Assays:
old acyclic rats = conditions: cited from earlier work
serum prolactin = conditions: young and old rats; cited from earlier work
old male rats = conditions: cited from earlier work
[1] = system: release of 5-hydroxyindoleacetic acid (5-HIAA) from the hypothalamus; assay: 5-HIAA release and content, static in vitro incubation of hypothalami, HPLC-EC; type: cell-based, Sprague-Dawley rats
Method: (§1) Four- to six-month old male Sprague-Dawley rats were obtained from Amitech (Omaha, Nebr.). These rats were housed in groups in air-conditioned (23±2° C.) and light controlled (lights on from 0700-1900 hours) animal rooms. They were provided rat chow and water ad libitum.
(§2) On the day of the experiment, the rats were sacrificed between 1200-1300 hrs. The brains were removed immediately and the hypothalami were dissected out using the following boundaries: the posterior part of the optic chiasmas the anterior limit, the anterior part of the mammillary bodies as the posterior limit, and the lateral hypothalamic sulci as the lateral limits (Palazzolo et al., Life Sci. 47: 2105-2109 (1990); Palazzolo et al., Life Sci. 51: 1797-1802 (1992)).
The hypothalami were weighed and divided into two halves along the sagittal plane and placed in a 12×75 mm glass tube containing 300 μl of Krebs-Ringer Henseleit (KRH) solution. The hypothalami were incubated in a static in vitro incubation system as described previously (Palazzolo et al., Life Sci. 47: 2105-2109 (1990); Palazzolo et al., Life Sci. 51: 1797-1802 (1992)). Briefly, the incubation system consisted of a plexiglass water bath, a magnetic circulator fin, and a thermostat coil. The bath was filled with distilled water and the thermostat was switched on at least an hour before the perfusion. […]

[2] = system: carcinogen-induced mammary tumor; conditions: rats; cited from earlier work
[3] = system: release of serotonin (5-HT) from the hypothalamus; assay: 5-HT release and content, static in vitro incubation of hypothalami, HPLC-EC; type: cell-based, Sprague-Dawley rats; conditions: for 5-HT release: second incubation period, control 41.0±21; for content of 5-HT at the end of the experiment: p<0.05
Method: as §1, §2
(§3) The hypothalami were weighed and divided into two halves along the sagittal plane and placed in a 12×75 mm glass tube containing 300 μl of Krebs-Ringer Henseleit (KRH) solution. The hypothalami were incubated in a static in vitro incubation system as described previously (Palazzolo et al., Life Sci. 47: 2105-2109 (1990); Palazzolo et al., Life Sci. 51: 1797-1802 (1992)). Briefly, the incubation system consisted of a plexiglass water bath, a magnetic circulator fin, and a thermostat coil. The bath was filled with distilled water and the thermostat was switched on at least an hour before the perfusion. The temperature in the water bath was maintained at 37° C. The magnetically controlled circulator fins stirred the water constantly to maintain a uniform temperature throughout the water bath. The incubation medium, KRH, consisted of 117 mM NaCl, 4.7 mM KCl, 1.2 mM MgSO4, 1.2 mM KH2PO4, 2.5 mM CaCl2, 24.8 mM NaHCO3, 11.1 mM glucose, 0.1 mg/ml ascorbic acid in 1 L of pyrogen free water. During the experiment, the incubation medium was supplied a mixture of 95% oxygen and 5% carbon dioxide constantly through gas inlet lines at a slow and steady rate to avoid turbulence. To stabilize the release of monoamines, each hypothalamus was preincubated in KRH for 60 min. Following this, the hypothalami were incubated for four 60-min periods as described below.
(§4) During the first incubation period, the hypothalami were incubated in KRH for 60 min to measure the basal release of monoamines and their metabolites. During the second incubation period, the hypothalami were incubated in KRH containing 0, 0.1 mM, 1.0 mM, or 10 mM of deprenyl. After this, the hypothalami were rinsed and incubated in KRH alone (without deprenyl) during the third incubation period to measure the residual effects, if any, from the pervious incubation period. In the final incubation period, the hypothalami were incubated with high K^+ KRH, which, had the same composition as the KRH except that it contained 60 mM KCl and 57 mM NaCl, to check the viability of the tissue. Hypothalami were rinsed with KRH in between incubations. After each incubation period, incubation medium was removed and 0.1 M HClO4 was added to it at the ratio of 25:1 (v/v) and was stored at −70° C. until analysis for neurotransmitters by HPLC-EC. At the end of the treatment period, the hypothalami were transferred to microsample vials containing 0.1 M HClO4 and were stored at −70° C. At the time of HPLC analysis, the hypothalami were homogenized in KRH and centrifuged at 1000 RPM for 15 min and the supernatant was used for the measurement of neurotransmitters.
(§5) The HPLC-EC system has been described before (Palazzolo et al., Life Sci. 47: 2105-2109 (1990); Palazzolo et al., Life Sci. 51: 1797-1802 (1992); ThyagaRajan, S.; Meites et al., Endocrinol. 136: 1103-1110 (1995)). Briefly, it consisted of an LC-4B electrochemical detector (Bioanalytical Systems, West Lafayette, Ind.); a phase II, 5 μm ODS reverse phase, C-18 column; a glassy carbon electrode, a C-R6A Chromatopac integrator, a CTO-6A column oven, and an LC-6A pump (Shimadzu, Columbia, Md.). […]

[4] = system: release of dihydroxyphenylacetic acid (DOPAC) from the hypothalamus; assay: DOPAC release and content, static in vitro incubation of hypothalami, HPLC-EC; type: cell-based, Sprague-Dawley rats; conditions: for concentration of DOPAC in the hypothalamus at the end of the experiment: control 416±176; for DOPAC release: second incubation period; for DOPAC release after removal of deprenyl from the medium: third incubation period
Method: as §1, §2, §3, §4, §5

[5] = system: release of dopamine (DA) from the hypothalamus; assay: dopamine release and content, static in vitro incubation of hypothalami, HPLC-EC; type: cell-based, Sprague-Dawley rats; conditions: for DA release after removal of deprenyl: third incubation period; for DA content of the hypothalami at the end of the experiment: p<0.05
Method: as §1, §2, §3, §4, §5

[6] = system: release of norepinephrine (NE) from the hypothalamus; assay: norepinephrine release and content, static in vitro incubation of hypothalami, HPLC-EC; type: cell-based, Sprague-Dawley rats; conditions: for content of NE in the hypothalami at the end of the experiment: control 1104±588
Method: as §1, §2, §3, §4, §5

[7] = system: retired racing female greyhounds; assay: induction of heat in retired racing female greyhounds previously treated with testosterone; type: in vivo, greyhound (canine); conditions: oral in saline, seven animals, saline control 22%
Method: Retired racing female greyhounds that were previously treated with testosterone were used in the experiments. Nine animals were used in the control group, and seven animals each were used in the low dose (0.5 mg/kg body weight deprenyl) and the high dose (0.75 mg/kg body weight) groups. Control animals were treated with oral saline solution. Experimental, animals were treated with one of the two doses of deprenyl orally dissolved in saline.

greyhound bitches = conditions: Bruyette et al., personal communication; cited from earlier work

## N[C@@H](Cc1ccc(O)c(O)c1)C(=O)O [1-dopa]
Old acyclic rats
  restoration of heat and the estrous cycle: restoration of heat and the estrous cycle

## CC(C)NNC(=O)c1ccncc1 [Iproniazid, 4-pyridinecarboxyylic acid, 2-(1-methylethyl)hydrazine]
Old acyclic rats
  restoration of heat and the estrous cycle: reinstate the estrous cycle

## C#CCN(C)C(C)Cc1ccccc1 (stereo not drawn) [deprenyl, phenethylamine, N, alpha-dimethyl-N-2-propynyl]
Old acyclic rats
  restoration of heat and the estrous cycle: restore heat and the estrous cycle
Serum prolactin
  serum prolactin concentrations: decreases serum prolactin concentrations
Old male rats
  sexual activity: increase sexual activity
[1]; deprenyl treated groups compared to the control group, P<0.05
  content of 5-HIAA in the hypothalami at the end of the experiment: significantly low
[1]; hypothalami incubated with different doses of deprenyl (0.1, 1, 10 mM)
  release of 5-HIAA: dose-dependant decrease
[2]
  carcinogen-induced mammary tumor growth: inhibits carcinogen-induced mammary tumor growth
[3]; 0.1 mM deprenyl
  5-HT release: 186.4±62
[3]; 0.1 mM group
  5-HT release on stimulation with high potassium KRH: significant increase
[3]; 1 mM deprenyl
  5-HT release: 438.4±85
[3]; 1 mM group compared to the control group
  content of 5-HT at the end of the experiment: significantly reduced
[3]; 10 mM deprenyl
  5-HT release: 670.3±199
[3]; 10 mM group compared to the control group
  content of 5-HT at the end of the experiment: significantly reduced
[3]; third incubation period
  5-HT release upon removal of deprenyl from the medium: declined rapidly
[4]; 0.1 mM deprenyl group
  concentration of DOPAC in the hypothalamus at the end of the experiment: 290.0±110
[4]; 0.1 mM deprenyl
  DOPAC release: did not produce any change
[4]; 1 mM deprenyl group, p<0.05
  concentration of DOPAC in the hypothalamus at the end of the experiment: 86.8±34
[4]; 1 mM deprenyl, pretreatment 267.7±46, p<0.01
  DOPAC release: 139.6±19
[4]; 1 mM group
  DOPAC release after removal of deprenyl from the medium: remained low
[4]; 10 mM deprenyl group, p<0.05
  concentration of DOPAC in the hypothalamus at the end of the experiment: 34.3±16
[4]; 10 mM deprenyl, pretreatment 285.6±28, p<0.001
  DOPAC release: 68.9±20
[4]; 10 mM group
  DOPAC release after removal of deprenyl from the medium: remained low
[4]; all the deprenyl-treated groups (0.1, 1, 10 mM)
  DOPAC release on stimulation with high potassium KRH: did not produce any increase
[5]; 0.1 mM deprenyl, second incubation period, not significantly different from pretreatment
  DA release: 125.1±49
[5]; 0.1 mM group, high K+ KRH, significant increase
  DA release: 393.1±109
[5]; 0.1 mM group
  DA release after removal of deprenyl: brought DA release to pretreatment levels
[5]; 1 mM deprenyl, second incubation period, pretreatment 42.9±6
  DA release: 154.8±59
[5]; 1 mM group compared to 0 mM group
  DA content of the hypothalami at the end of the experiment: significantly less
[5]; 1 mM group, high K+ KRH, significant increase
  DA release: 106.8±27
[5]; 1 mM group
  DA release after removal of deprenyl: brought DA release to pretreatment levels
[5]; 10 mM deprenyl, second incubation period
  DA release: 197.7±63
[5]; 10 mM group compared to 0 mM group
  DA content of the hypothalami at the end of the experiment: significantly less
[5]; 10 mM group, high potassium KRH, not statistically significant from pretreatment
  DA release: 85.3±40
[5]; 10 mM group
  DA release after removal of deprenyl: returned DA release to basal levels
[6]; 0.1 mM deprenyl group
  content of NE in the hypothalami at the end of the experiment: 743.3±179
[6]; 0.1 mM deprenyl, second incubation period (KRH+DEP), pretreatment 196.9±43, increase not significant
  NE release (Mean±S.E.): 252.3±48 pg/mg hypothalamus
[6]; 0.1 mM group, fourth period, high potassium KRH, p<0.05
  NE release (Mean±S.E.): 538.2±142 pg/mg hypothalamus
[6]; 0.1 mM group, third incubation period (KRH alone after deprenyl)
  NE release (Mean±S.E.): 185.1±42 pg/mg hypothalamus
[6]; 1 mM deprenyl group, p<0.05
  content of NE in the hypothalami at the end of the experiment: 388.1±71
[6]; 1 mM group, last period, high K+ KRH, p<0.05
  NE release (Mean±S.E.): 375.2±92 pg/mg hypothalamus
[6]; 1 mM group, third incubation period (KRH alone)
  NE release (Mean±S.E.): 267.7±28 pg/mg hypothalamus
[6]; 10 mM deprenyl group, p<0.05
  content of NE in the hypothalami at the end of the experiment: 281.3±91
[6]; 10 mM deprenyl, second incubation period, pretreatment 132.8±56, p<0.05
  NE release (Mean±S.E.): 799.9±141 pg/mg hypothalamus
[6]; 10 mM group, high K+ KRH, not statistically significant
  NE release (Mean±S.E.): 222.4±57 pg/mg hypothalamus
[6]; 10 mM group, third incubation period (KRH alone)
  NE release (Mean±S.E.): 159.8±41 pg/mg hypothalamus
[7]; higher dose 0.75 mg/kg body weight
  animals that came to heat: 86%
[7]; low dose 0.5 mg/kg body weight
  animals that came to heat: Fifty

## GnRH: hypothalamic hormone called gonadotropin-releasing hormone (QHWSYGLRPG; ends and bridges not checked; UniProt P01148 24-33, looked up)
Greyhound bitches
  induction of heat: unable to induce heat
